Values after ≈ are worked out from the molar mass of the structure shown.
How the values were obtained:
Type in all cases: cell-based
[1] = tested on: Salmonella typhimurium (ATCC 13311); assay: Anti-infective in vitro assay, growth inhibition (turbidity); settings: Salmonella typhimuium (ATCC 13311)
Experimental: (§1) In a preliminary investigations the potential usage of the M. citrifolia Noni fruit juice on bacterial species and various protozoan species, which are known to cause economic downfalls in humans and livestock industries were assessed.
(§2) Method employed in this study have been adapted from the scientific literature to maximize reliability and reproducibility. Reference standards were run as an integral part of each assay to ensure the validity of the results obtained. Materials utilized are described in the following charts.

[2] = tested on: Trichomonas foetus (Br. M. Strain); assay: Anti-infective in vitro assay, inhibition of growth examined; settings: Tritrichomonas foetus, read-out: Reference Compound, Concurrent (MIC)
Experimental: as §1, §2

[3] = tested on: Actinomyces viscosus (ATCC 15987); assay: Anti-infective in vitro assay, growth inhibition (turbidity); settings: ATCC15987, read-out: Reference Compound, Concurrent (MIC)
Experimental: as §1, §2

Gentamicin showed an MIC [1] of 0.3 µg/mL.

Work on `Cc1ncc([N+](=O)[O-])n1CCO` [Metronidazole] yielded an MIC [2] of 3 µg/mL (≈ 17.5 µM).

Work on `CC1(C)S[C@@H]2[C@H](NC(=O)[C@H](N)c3ccccc3)C(=O)N2[C@H]1C(=O)O` [Ampicillin] yielded an MIC [3] of 0.03 µg/mL (≈ 0.0859 µM).

From patent US20090011057A1, “FORMULATIONS AND METHODS FOR INHIBITING ANAEROBES, GRAM NEGATIVE BACTERIA, PROTOZOA AND OTHER MICROBIAL GROWTH WITH MORINDA CITRIFOLIA L. ENHANCED FORMULATIONS” (priority 2007, published 2009)
